Key:
Conditions in all cases: incubation time: 72 h
[1] = tested on: BT-474; test: normalised response (% of control), CellTox Green; higher = less cell death (100 = DMSO, 0 = benzethonium chloride kill control)
How it was run: (§1)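 After 72 h with compound in 384-well plates, breast cancer cell lines seeded as 20 µl suspension were read for CellTox Green fluorescence at 485/520 nm. CellTiter-Glo luminescence was then read after 10 min at room temperature. Compound was present at 5 concentrations in 10-fold steps over a 10,000-fold range set per compound, and plates were normalised to 0.1 % DMSO (100) and a positive kill control (0). Values are normalised signals, each at a single concentration.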

[2] = tested on: BT-549; test: as above
How it was run: as §1

[3] = tested on: CAL-120; test: as above
How it was run: as §1

[4] = tested on: CAL-148; test: as above
How it was run: as §1

[5] = tested on: CAL-51; test: as above
How it was run: as §1

[6] = tested on: CAL-85-1; test: as above
How it was run: as §1

[7] = tested on: DU-4475; test: as above
How it was run: as §1

[8] = tested on: HCC1599; test: as above
How it was run: as §1

[9] = tested on: HCC1937; test: as above
How it was run: as §1

[10] = tested on: HDQ-P1; test: as above
How it was run: as §1

[11] = tested on: MCF-10A; test: as above
How it was run: as §1

[12] = tested on: MDA-MB-231; test: as above
How it was run: as §1

[13] = tested on: MDA-MB-453; test: as above
How it was run: as §1

[14] = tested on: MDA-MB-468; test: as above
How it was run: as §1

[15] = tested on: MFM-223; test: as above
How it was run: as §1

[16] = tested on: BT-474; test: normalised response (% of control), CellTiter-Glo; higher = more viable cells (100 = DMSO, 0 = benzethonium chloride kill control)
How it was run: as §1

[17] = tested on: BT-549; test: as above
How it was run: as §1

[18] = tested on: CAL-120; test: as above
How it was run: as §1

[19] = tested on: CAL-148; test: as above
How it was run: as §1

[20] = tested on: CAL-51; test: as above
How it was run: as §1

[21] = tested on: CAL-85-1; test: as above
How it was run: as §1

[22] = tested on: DU-4475; test: as above
How it was run: as §1

[23] = tested on: HCC1143; test: as above
How it was run: as §1

[24] = tested on: HCC1599; test: as above
How it was run: as §1

[25] = tested on: HCC1937; test: as above
How it was run: as §1

[26] = tested on: HDQ-P1; test: as above
How it was run: as §1

[27] = tested on: Hs578T; test: as above
How it was run: as §1

[28] = tested on: MCF-10A; test: as above
How it was run: as §1

[29] = tested on: MDA-MB-231; test: as above
How it was run: as §1

[30] = tested on: MDA-MB-436; test: as above
How it was run: as §1

[31] = tested on: MDA-MB-453; test: as above
How it was run: as §1

[32] = tested on: MDA-MB-468; test: as above
How it was run: as §1

[33] = tested on: MFM-223; test: as above
How it was run: as §1

[34] = tested on: SK-BR-3; test: as above
How it was run: as §1

[35] = tested on: HCC1143; test: normalised response (% of control), CellTox Green; higher = less cell death (100 = DMSO, 0 = benzethonium chloride kill control)
How it was run: as §1

[36] = tested on: Hs578T; test: as above
How it was run: as §1

[37] = tested on: MDA-MB-436; test: as above
How it was run: as §1

| SMILES | normalised response [1] | normalised response [2] | normalised response [3] | normalised response [4] | normalised response [5] | normalised response [6] | normalised response [7] | normalised response [8] | normalised response [9] | normalised response [10] | normalised response [11] | normalised response [12] | normalised response [13] | normalised response [14] | normalised response [15] | normalised response [16] | normalised response [17] | normalised response [18] | normalised response [19] | normalised response [20] | normalised response [21] | normalised response [22] | normalised response [23] | normalised response [24] | normalised response [25] | normalised response [26] | normalised response [27] | normalised response [28] | normalised response [29] | normalised response [30] | normalised response [31] | normalised response [32] | normalised response [33] | normalised response [34] | normalised response [35] | normalised response [36] | normalised response [37] |
| --- | --- | --- | --- | --- | --- | --- | --- | --- | --- | --- | --- | --- | --- | --- | --- | --- | --- | --- | --- | --- | --- | --- | --- | --- | --- | --- | --- | --- | --- | --- | --- | --- | --- | --- | --- | --- | --- |
| c1cc(CN2CCCNCCNCCCNCC2)ccc1CN1CCCNCCNCCCNCC1 [Plerixafor] (1000 nM) | 95.2% | 107% | 96.6% | 92.3% | 89.1% | 105% | 91.8% | 88.8% | 54.1% | 58.5% | 86.6% | 82.7% | 99% | 85% | 97.4% | 93.7% | 105% | 111% | 90.4% | 111% | 96.1% | 92.1% | 97.3% | 102% | 101% | 101% | 91.4% | 81.8% | 96.9% | 102% | 80.1% | 98.1% | 87.3% | 80% |  |  |  |
| Cc1cccc(-c2nn3c(c2-c2ccnc4ccc(C(N)=O)cc24)CCC3)n1 [Galunisertib] (100 nM) | 102% | 121% | 101% | 108% | 112% | 102% | 107% | 109% | 93.8% | 70.6% | 59.8% | 120% | 114% | 170% | 98.5% | 104% | 94.3% | 104% | 101% | 88.5% | 104% | 104% | 109% | 109% | 104% | 101% | 91.6% | 109% | 108% | 110% | 105% | 107% | 107% | 105% | 112% | 87.6% | 105% |
| O=C(NC[C@H](O)CO)c1ccncc1Nc1ccc(I)cc1F [Pimasertib] (1000 nM) | 78.8% | 142% | 83.4% | 105% | 93.7% | 67.4% | 62.6% | 111% | 109% | 77.2% | 106% | 63.2% | 107% | 150% | 100% | 69.8% | 96.1% | 73.6% | 83.5% | 73% | 61.9% | 0.43% | 84.2% | 91.6% | 84.3% | 62.1% | 86.2% | 31.2% | 72.1% | 95.5% | 105% | 87.4% | 94% | 86.1% | 89.5% | 103% | 56.7% |
| CC/C(=C(\c1ccc(O)cc1)c1ccc(OCCN(C)C)cc1)c1ccccc1 [4-hydroxytamoxifen] (1000 nM) | 97.7% | 114% | 108% | 57.6% | 108% | 120% | 105% | 95.8% | 86.6% | 97.3% | 103% | 108% | 111% | 128% | 95.9% | 101% | 93.6% | 92.5% | 102% | 102% | 97.2% | 98.5% | 98.9% | 105% | 93.9% | 98.8% | 107% | 98.8% | 97% | 101% | 102% | 91.6% | 95.6% | 99.2% | 88.3% | 97.2% | 93.6% |
| CC(=O)OC[C@H]1O[C@@H]([S-])[C@H](OC(C)=O)[C@@H](OC(C)=O)[C@@H]1OC(C)=O.CCP(CC)CC.[Au+] [Auranofin] (250 nM) | 95.5% | 103% | 107% | 107% | 80.4% | 120% | 110% | 104% | 108% | 115% | 115% | 125% | 105% | 79.5% | 98.4% | 99% | 68.9% | 99.4% | 101% | 46.3% | 93.2% | 102% | 91.8% | 112% | 87.4% | 101% | 97.4% | 118% | 101% | 90.7% | 90.7% | 18.5% | 98.5% | 99.8% | 123% | 103% | 109% |
| O=C(Nc1c[nH]nc1-c1nc2ccc(CN3CCOCC3)cc2[nH]1)NC1CC1 [AT9283] (100 nM) | 103% | 121% | 84.9% | 20.3% | 71.7% | 84.6% | 97.6% | 110% | 85% | 99.6% | 70.3% | 14.5% | 100% | 70.7% | 103% | 73.8% | 82.1% | 85% | 46.6% | 69% | 105% | 88.9% | 84.8% | 102% | 93.8% | 96.9% | 88.8% | 71.8% | 78.8% | 99% | 141% | 29.7% | 89.2% | 86.4% | 101% | 94.9% | 86.7% |
| CC(C)N(CCCNC(=O)Nc1ccc(C(C)(C)C)cc1)C[C@H]1O[C@@H](n2cc(Br)c3c(N)ncnc32)[C@H](O)[C@@H]1O [SGC0946] (1000 nM) | 97.3% | 99.9% | 95.7% |  | 100% | 96.3% | 95.8% | 91.8% | 93.1% | 103% | 107% | 101% | 105% | 111% | 98.4% | 103% | 95.5% | 100% | 91.3% | 118% | 102% | 98.4% | 96.5% | 102% | 97.3% | 102% | 103% | 97.9% | 92.1% | 93.4% | 104% | 86.5% | 94% | 95.7% |  |  | 97.8% |
| CS(=O)(=O)N1CCN(Cc2cc3nc(-c4cccc5[nH]ncc45)nc(N4CCOCC4)c3s2)CC1 [Pictilisib] (1000 nM) | 97.5% | 125% | 100% | 53.4% | 92.7% |  | 98.3% | 103% | 126% | 87.1% | 44.2% | 99.3% | 96.7% | 45.4% | 76.8% | 69.4% | 58.7% | 64.9% | 66.3% | 57.4% | 63.5% | 86.5% | 68% | 96.1% | 73.9% | 47.1% | 64.3% | 38.4% | 70.5% | 72.7% | 38.6% | 72.9% | 66.5% | 40.4% | 62.9% | 108% | 99.6% |
| CCCCC/C=C/C=C1/C(=O)C=C[C@@H]1C/C=C\CCCC(=O)O [15D-PGJ2] (80 nM) | 98.9% | 105% | 108% | 103% | 113% | 125% | 110% | 109% | 123% | 111% | 104% | 86.6% | 113% | 155% | 101% | 101% | 99.1% | 103% | 102% | 123% | 96.2% | 102% | 104% | 88.8% | 99.1% | 99.9% | 107% | 111% | 101% | 98.5% | 96.8% | 99.2% | 99.9% | 103% | 82.5% |  | 116% |
